# In patent US7396848B1, “Neurotrophin production/secretion promoting agent” (Takeda Pharmaceutical Company Limited, priority 2000, dated 2008):
# Columns and labels:
# BDNF [1] = experiment: BDNF content in peripheral and brain tissues of STZ diabetic neuropathy model rats; format: in vivo, SD rats
# Protocol: (§1) The culture fluid obtained in each run of Reference Example 1A was recovered and assayed for the neurotrophin content therein. NGF was assayed by the enzyme immunoassay method described by Murase et al. in Biochemistry International, vol. 22, p. 807 (1990). Thus, an anti-NGF antibody (100 μg/ml) (antibody obtained by using mouse NGF as the antigen and immunizing New Zealand albino rabbits therewith) was distributed in 10-μl portions in the wells of 96-well round bottom plates and antibody adsorption was allowed to proceed by 2 hours standing at room temperature. After removing the antibody, each well was washed three times with a washing solution. A 10-μl portion of the above recovered culture fluid or standard NGF solution was placed in each well and the plates were allowed to stand at room temperature for 2.5 hours. After three times washings of each well, 20 μl of biotinylated anti-NGF antibody (35 ng/ml) was added thereto, followed by overnight standing at 4° C. […] After washing, 30 μl of 4-methylumbelliferyl-β-D-galactoside (produced by Sigma) (10 μg/μl) was added to the substrate, the reaction was allowed to proceed at room temperature for 4 hours and then terminated by addition of 130 μl of 0.1 M glycine-sodium hydroxide buffer (pH 10.3), and the fluorescent intensity of the 4-methylumbelliferone produced was determined (Ex: 360 nm; Em: 450 nm). The amount of NGF was calculated based on a standard curve and expressed in terms of relative multiplicity in relation to the amount of NGF (control) produced and secreted by cells treated in the same manner without adding the test compound. […]
# (§2) A diabetic neuropathy model was made by injecting streptozotocin (STZ) into the tail vein of male 6-week-old SD rats in a dose of 70 mg/kg body weight. […] After 30 minutes of centrifugation at 15,000 rpm, the supernatant was used as the sample and the NGF and BDNF contents were determined in the same manner as in Experimental Example 1.
# NGF [2] = experiment: NGF content in peripheral and brain tissues of STZ diabetic neuropathy model rats; format: in vivo, SD rats
# Protocol: as §1, §2
# [3] = tested on: diabetic neuropathy model; experiment: Hyperalgesia test (pressure-stimulant algesiometer, pain threshold of hind-limb) in STZ diabetic neuropathy model rats; format: in vivo, SD rats; settings: 10 mg/kg body weight/day orally for 1 month
# Protocol: A diabetic neuropathy model was made by injecting streptozotocin (STZ) into the tail vein of male 6-week-old SD rats in a dose of 70 mg/kg body weight. After 4 months of housing, 10 mg/kg body weight/day of compound (5) which was suspended in 0.5% (w/v) methylcellulose was orally administered for 1 month. After administration, a hvderalgesia test was conducted using a pressure-stimulant algesiometer (produced by Ugo Basil) to determine the pain threshold of hind-limb.
# BDNF [4] = experiment: BDNF production/secretion promoting activity in cultured Schwann cells (enzyme immunoassay of culture fluid); format: cell-based, SD rats; settings: 24 hours, concentrations of 10^−4 M to 10^−8 M, result in words
# [5] = tested on: diabetic neuropathy model; experiment: Sensory nerve conduction velocity in STZ diabetic neuropathy model rats; format: in vivo, SD rats; settings: 10 mg/kg body weight/day orally for 4 months
# Protocol: A diabetic neuropathy model was made by injecting streptozotocin (STZ) into the tail vein of male 6-week-old SD rats in a dose of 70 mg/kg body weight. After 4 moths of housing, 10 mg/kg body weight/day of compound (5) which was suspended in 0.5% (w/v) methylcellulose was orally administered for 4 months. After administration, the rats were anesthetized with pentobarbital and the body temperature of the rats were kept 37° C. using a hotplate heated and an electric lamp. Then, conduction velocities of motor nerves and sensory nerves were determined using an induction potential test device (Neuropack 2, produced by Nihon Kohden) in the following manner. Proximal or distal positions of the sural nerve of the rats were stimulated at, in principle, 0.8 mA and the potential was recorded at the plantar skin. The sensory nerve conduction velocity was calculated from the distance and latencies of the two different stimulating sites.
# BDNF [6] = experiment: BDNF content in pons of STZ diabetic neuropathy model rats; format: in vivo, SD rats; settings: 10 mg/kg body weight/day orally for 1 month
# Protocol: (§3) A diabetic neuropathy model was made by injecting streptozotocin (STZ) into the tail vein of male 6-week-old SD rats in a dose of 70 mg/kg body weight. After 4 weeks, 0.1 to 3 mg/kg body weight of compound (5) was orally administered for 4 weeks, and each tissue was collected. The collected tissue was supplemented with 25 to 40 times of disruption buffer (0.1 M Tris-hydrochloride buffer, pH 7.6, containing 1 M sodium chloride, 2% BSA, 2 mM EDTA, 80 trypsin units/L of aprotinin and 0.02% sodium azide) in terms of the wet tissue weight, which was subjected to sonication. After 30 minutes of centrifugation at 15,000 rpm, the supernatant was used as the sample and the NGF and BDNF contents were determined in the same manner as in Experimental Example 1.
# (§4) A diabetic neuropathy model was made by injecting streptozotocin (STZ) into the tail vein of male 6-week-old SD rats in a dose of 70 mg/kg body weight. […]
# (§5) While, the pons were collected from brain stem to determine the contents of neurotrophic factors. The BDNF contents were determined in the similar manner as in Experimental Example 2. The NT-3 contents were determined in the similar manner as in Experimental Example 2 except that an anti-NT-3 antibody (Brain Res. 1994, 12, pp. 143-146; Clin Chim Acta 1994, 227, pp. 23-36) was used.
# [7] = tested on: diabetic neuropathy model; experiment: Motor nerve conduction velocity in STZ diabetic neuropathy model rats; format: in vivo, SD rats; settings: 10 mg/kg body weight/day orally for 4 months
# Protocol: A diabetic neuropathy model was made by injecting streptozotocin (STZ) into the tail vein of male 6-week-old SD rats in a dose of 70 mg/kg body weight. After 4 moths of housing, 10 mg/kg body weight/day of compound (5) which was suspended in 0.5% (w/v) methylcellulose was orally administered for 4 months. After administration, the rats were anesthetized with pentobarbital and the body temperature of the rats were kept 37° C. using a hotplate heated and an electric lamp. Then, conduction velocities of motor nerves and sensory nerves were determined using an induction potential test device (Neuropack 2, produced by Nihon Kohden) in the following manner. Needle electrodes were placed at the thigh or the ankle of the rats. Then, the sciatic nerve or the tibial nerve was stimulated at, in principle, 1.6 mA and the action potential was recorded from the plantar muscle. The motor nerve conduction velocity was calculated from the distance and latencies of the two different stimulating sites.
# NT-3 = NT-3 content in pons of STZ diabetic neuropathy model rats; format: in vivo, SD rats; settings: 10 mg/kg body weight/day orally for 1 month
# Protocol: as §3, §4, §5
# NGF [8] = experiment: NGF production/secretion promoting activity in cultured Schwann cells (enzyme immunoassay of culture fluid); format: cell-based, SD rats; settings: 24 hours, concentrations of 10^−4 M to 10^−8 M, result in words
# Protocol: Schwann cells were prepared by subjecting the dorsal spinal root ganglion collected from 10 newborn SD rats to enzyme treatment using 0.25% trypsin containing 0.01% deoxyribonuclease (DNase, produced by Sigma), followed by cloning from the cell group obtained. […]
# The culture fluid obtained in each run of Reference Example 1A was recovered and assayed for the neurotrophin content therein. […] After washing, 30 μl of 4-methylumbelliferyl-β-D-galactoside (produced by Sigma) (10 μg/μl) was added to the substrate, the reaction was allowed to proceed at room temperature for 4 hours and then terminated by addition of 130 μl of 0.1 M glycine-sodium hydroxide buffer (pH 10.3), and the fluorescent intensity of the 4-methylumbelliferone produced was determined (Ex: 360 nm; Em: 450 nm). The amount of NGF was calculated based on a standard curve and expressed in terms of relative multiplicity in relation to the amount of NGF (control) produced and secreted by cells treated in the same manner without adding the test compound. […]
# [9] = 0.1 to 3 mg/kg body weight orally for 4 weeks, hippocampus, Mean ± SD (n = 8 to 9), *: p < 0.05 vs STZ group
# [10] = 0.1 to 3 mg/kg body weight orally for 4 weeks, sciatic nerve, Mean ± SD (n = 8 to 9), *: p < 0.05 vs STZ group
# [11] = Mean ± SD (n = 5 to 8), **: p < 0.01 vs STZ group
# [12] = pons, Mean ± SD (n = 10), **: p < 0.01 vs STZ group
smiles,measurement,setting,value
"Cc1ccccc1OCCCc1oc(-n2ccnc2C)nc1-c1ccc(Cl)cc1 [Compound (5), 4-(4-chlorophenyl)-2-(2-methyl-1-imidazolyl)-5-[3-(2-methylphenoxy)propyl]oxazole]",BDNF (ng/g tissue) Hippocampus,BDNF [1]; [9],3.5 ± 0.3* ng/g tissue
same,BDNF (ng/g tissue) Sciatic nerve,BDNF [1]; [10],5.0 ± 0.6* ng/g tissue
same,BDNF production/secretion promoting activity at the sciatic nerve and the hippocampus,"BDNF [1]; oral, 4 weeks, result in words",excellent
same,NGF (pg/g tissue) Hippocampus,NGF [2]; [9],738 ± 105* pg/g tissue
same,NGF (pg/g tissue) Sciatic nerve,NGF [2]; [10],495 ± 143* pg/g tissue
same,NGF production/secretion promoting activity at the sciatic nerve and the hippocampus,"NGF [2]; oral, 4 weeks, result in words",excellent
same,Pain threshold (g),"[3]; hind-limb, Mean ± SD (n = 10), **: p < 0.01 vs STZ group",109 ± 19** g
same,"hyperalgesia, effect versus STZ group",[3]; result in words,ameliorated
same,BDNF production/secretion promoting activity,BDNF [4],excellent
same,SNCV (m/s),[5]; [11],41.1 ± 7.9** m/s
same,"sensory nerve conduction velocity, effect versus STZ group",[5]; result in words,recovered
same,BDNF (pg/g tissue),BDNF [6]; [12],4151 ± 1161** pg/g tissue
same,"amount of BDNF in pons, effect versus STZ group",BDNF [6]; result in words,increased
same,MNCV (m/s),[7]; [11],54.9 ± 7.6** m/s
same,"motor nerve conduction velocity, effect versus STZ group",[7]; result in words,recovered
same,NT-3 (pg/g tissue),NT-3; [12],352 ± 118** pg/g tissue
same,"amount of NT-3 in pons, effect versus STZ group",NT-3; result in words,increased
same,NGF production/secretion promoting activity,NGF [8],excellent
